Results taken from patent US10980776B2, “Synergistic pharmaceutical combination for the treatment of squamous cell carcinoma of head and neck” (Piramal Enterprises Limited, priority 2011, dated 2021).

Key:
SCC-25 cells [1] = assay: Combination studies (single and sequential combination dosing), % cytotoxicity in SCC-25 cells; conditions: Homo sapiens, SCC-25, SCC-25; for cytotoxicity at 1.1 µM: single agent at IC50 (compound B 1.1 μM)
Experimental: (§1) Logarithmically growing cells were plated at a density of 3×10^3 cells/well and allowed to recover overnight. […] After 72 hours, cell toxicity was determined by CCK-8 (Cell Counting Kit-8) reagent (Dojindo Molecular Technologies, Japan); WST-8 (2-(2-methoxy-4-nitrophenyl)-3-(4-nitrophenyl)-5-(2, 4-disulfophenyl)]-2H-tetrazolium, monosodium salt) assay. In accordance with the manufacturer's instructions, 5 μl/well CCK-8 reagent was added and plates were incubated for 2 hours. The toxicity was determined by measuring the absorbance on Tecan Sapphire multi-fluorescence micro-plate reader (Tecan, Germany, GmbH) at a wavelength of 450 nm corrected to 650 nm and normalized to controls.
(§2) CCK-8 allows convenient assays using Dojindo's tetrazolium salt, WST [8[(2-(2-methoxy-4-nitrophenyl)-3-(4-nitrophenyl)-5-(2,4-disulfophenyl)-2H-tetrazolium, monosodium salt], which produces a water-soluble formazan dye upon bioreduction in the presence of an electron carrier, 1-Methoxy PMS. CCK-8 solution is added directly to the cells; no pre-mixing of components is required. CCK-8 is a sensitive nonradioactive colorimetric assay for determining the number of viable cells in cell proliferation and cytotoxicity assays. WST-8 is bio-reduced by cellular dehydrogenases to an orange formazan product that is soluble in tissue culture medium. The amount of formazan produced is directly proportional to the number of living cells. The detection sensitivity of cell proliferation assays using WST-8 is higher than assays using the other tetrazolium salts such as MIT, XTT, MTS or WST-1. Optical Density was determined at measurement wavelength of 450 nm and reference wave length of 630 nm.
Sorafenib in the following dose of final concentration 0.18 μM and compound A in the following doses of final concentration 0.1 μM, 0.4 μM and 4.1 μM were analyzed in single dose and in all possible combinations of the dose range for the two anticancer agents mentioned above. The sequence of treatment is as follows; the SCC-25 cells were treated with sorafenib for 0 to 24 hrs. At the end of 24 hrs the cells were washed two times with plain MEM (minimum essential media) medium. Fresh MEM with 10% serum (200 μL/well) was added, followed by treatment with compound A from 24 hrs to 96 hrs.
Sorafenib in the following dose of final concentration 0.18 μM and compound B in the following doses of final concentration 0.2 μM, 1.1 μM and 4.8 μM were analyzed in single dose and in all possible combinations of the dose range for the two anticancer agents mentioned above. The sequence of treatment is as follows; the SCC-25 cells were treated with sorafenib for 0 to 24 hrs. At the end of 24 hrs the cells were washed two times with plain MEM medium. Fresh MEM with 10% serum (200 μL/well) was added, followed by treatment with compound B from 24 hrs to 96 hrs.
Lapatinib in the following dose of final concentration 0.2 μM and compound A in the following doses of final concentration 0.2 μM, 0.5 μM and 3.3 μM were analyzed in single dose and in all possible combinations of the dose range for the two drugs mentioned above. The sequence of treatment is as follows; the SCC-25 cells were treated with lapatinib for 0 to 24 hrs. At the end of 24 hrs the cells were washed two times with plain MEM medium. Fresh MEM with 10% serum (200 μL/well) was added, followed by treatment with compound A from 24 hrs to 96 hrs.
Lapatinib in the following dose of final concentration 0.2 μM and compound B in the following doses of final concentration 0.2 μM, 1.1 μM and 4.8 μM were analyzed in single dose and in all possible combinations of the dose range for the two drugs mentioned above. The sequence of treatment is as follows; the SCC-25 cells were treated with lapatinib for 0 to 24 hrs. At the end of 24 hrs the cells were washed two times with plain MEM medium. Fresh MEM with 10% serum (200 μL/well) was added, followed by treatment with compound A from 24 hrs to 96 hrs.

FADU cells = assay: cells; conditions: Homo sapiens; for cytotoxicity at 4.1 µM: single agent at IC50 (compound B 4.1 μM); for cytotoxicity at 9.6 µM: single agent at IC70 (compound B 9.6 μM)
SCC-25 cells [2] = assay: CCK-8 cytotoxicity assay, determination of inhibitory concentrations in SCC-25 cells; type: cell-based; conditions: SCC-25 cells, 72 hr
Experimental: as §1, §2
(§3) The cells were seeded at a density of 3000 cells/well, in a 200 μL in tissue culture grade 96 well plate and were allowed to recover for 24 hrs in a humidified 5%±0.2 CO2 incubator at 37° C.±0.5° C. […] The final DMSO concentration was 0.5% in wells. Plates were incubated for 48 hrs in humidified 5%±0.2 CO2 incubator at 37±0.5° C. After 48 hrs the plates were removed from CO2 incubator and 5 μL of Cell counting Kit (CCK-8) per well was added. The same plate was kept at 37° C. for 3 hrs, and allowed to come to room temperature. The absorbance at a wavelength of 450 nm was read on Tecan safire reader. The percent cytotoxicity was calculated using the following formula.

Detroit-562 cells = assay: CCK-8 cytotoxicity assay, determination of inhibitory concentrations in Detroit-562 cells; type: cell-based; conditions: 72 hr
Experimental: as §1, §2, §3

Compound `CN1CC[C@@H](c2c(O)cc(O)c3c(=O)cc(-c4ccc(C(F)(F)F)cc4Cl)oc23)[C@@H]1CO.Cl` [Compound B, (+)-trans-2-(2-chloro-4-trifluoromethyl-phenyl)-5,7-dihydroxy-8-(2-hydroxymethyl-1-methyl-pyrrolidin-3-yl)-chromen-4-one hydrochloride] has a cytotoxicity at 0.2 µM (SCC-25 cells [1]; single agent at IC30 (lapatinib 0.2 μM; compound B 0.2 μM)) of 16%, a cytotoxicity at 0.2 µM (SCC-25 cells [1]; single agent at IC30 (sorafenib 0.18 μM; compound B 0.2 μM)) of 16% and a cytotoxicity at 1.1 µM (SCC-25 cells [1]; lapatinib study) of 19%. The cytotoxicity at 1.1 µM (SCC-25 cells [1]; sorafenib study) was 19%, the cytotoxicity at 2.3 µM (FADU cells; single agent at IC30 (lapatinib 0.8 μM; compound B 2.3 μM)) was 21% and the cytotoxicity at 2.3 µM (FADU cells; single agent at IC30 (sorafenib 3.9 μM; compound B 2.3 μM)) was 14%. For the same compound, the cytotoxicity at 4.1 µM (FADU cells; lapatinib study) was 26%, the cytotoxicity at 4.1 µM (FADU cells; sorafenib study) was 20% and the cytotoxicity at 9.6 µM (FADU cells; lapatinib study) was 33%. The cytotoxicity at 9.6 µM (FADU cells; sorafenib study) was 27%, the IC90 (SCC-25 cells [2]; Homo sapiens) was 41.8 µM and the IC50 (SCC-25 cells [2]; Homo sapiens, read-out: IC50) was 1.1 µM. It also gave an IC30 (SCC-25 cells [2]) of 0.2 µM, an IC70 (SCC-25 cells [2]) of 4.8 µM and an IC30 (Detroit-562 cells) of 2.7 µM. For the same compound, the IC70 (Detroit-562 cells) was 25.2 µM, the IC50 (Detroit-562 cells; Homo sapiens) was 14.1 µM and the IC90 (Detroit-562 cells; Homo sapiens) was 44.6 µM.
